Test results published in ChEMBL document CHEMBL1201862, “PubChem BioAssay data set” (2004).
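Results reflect a 48-hour exposure of cells in 96-well plates to compound at five concentrations. Abbreviation: GI50, concentration required for 50% inhibition of growth.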 The source made the active and inactive calls. Cut-off read from the data, not from the text of the source: active = GI50 up to about 1.1 µM and inactive = higher.

Tests used:
Assay in all cases: DTP human tumour cell line panel, 48 h
HOP-62 = tested on: HOP-62
HCT-15 = tested on: HCT-15
DU-145 = tested on: DU-145
MDA-N = tested on: MDA-N
IGROV-1 = tested on: IGROV-1
COLO 205 = tested on: COLO 205
SN12C = tested on: SN12C
OVCAR-3 = tested on: OVCAR-3
KM12 = tested on: KM12
NCI-H226 = tested on: NCI-H226
PC-3 = tested on: PC-3
MDA-MB-435 = tested on: MDA-MB-435
HL-60 = tested on: HL-60
BT-549 = tested on: BT-549
OVCAR-5 = tested on: OVCAR-5
786-0 = tested on: 786-0
SNB-19 = tested on: SNB-19
UO-31 = tested on: UO-31
TK-10 = tested on: TK-10
SK-MEL-2 = tested on: SK-MEL-2
SR = tested on: SR
SW-620 = tested on: SW-620
NCI/ADR-RES = tested on: NCI/ADR-RES
NCI-H460 = tested on: NCI-H460
A549 = tested on: A549
NCI-H522 = tested on: NCI-H522
SF-268 = tested on: SF-268
SK-MEL-28 = tested on: SK-MEL-28
UACC-257 = tested on: UACC-257
OVCAR-4 = tested on: OVCAR-4
U-251 = tested on: U-251
SK-MEL-5 = tested on: SK-MEL-5
UACC-62 = tested on: UACC-62
MCF7 = tested on: MCF7
Malme-3M = tested on: Malme-3M
MOLT-4 = tested on: MOLT-4
HCT-116 = tested on: HCT-116
NCI-H23 = tested on: NCI-H23
SF-295 = tested on: SF-295
SK-OV-3 = tested on: SK-OV-3
HOP-92 = tested on: HOP-92
CCRF-CEM = tested on: CCRF-CEM
M14 = tested on: M14
Hs-578T = tested on: Hs-578T
LOX IMVI = tested on: LOX IMVI
CAKI-1 = tested on: CAKI-1
K562 = tested on: K562
SNB-75 = tested on: SNB-75
ACHN = tested on: ACHN
RPMI-8226 = tested on: RPMI-8226
EKVX = tested on: EKVX
HT-29 = tested on: HT-29
OVCAR-8 = tested on: OVCAR-8
A498 = tested on: A498
HCC 2998 = tested on: HCC 2998
RXF 393 = tested on: RXF 393
SF-539 = tested on: SF-539
T47D = tested on: T47D
MDA-MB-231 = tested on: MDA-MB-231

Measured: GI50

O=S(=O)(N/N=C1\CC2CCC1C2)c1ccccc1 (centres undefined)
> 100 µM: HCT-15
inactive: HOP-62 > 100 µM | DU-145 > 100 µM | MDA-N > 100 µM | IGROV-1 > 100 µM | COLO 205 > 100 µM | SN12C > 100 µM | OVCAR-3 > 100 µM | KM12 > 100 µM | NCI-H226 > 100 µM | PC-3 > 100 µM | MDA-MB-435 > 100 µM | HL-60 > 100 µM | BT-549 > 100 µM | OVCAR-5 > 100 µM | 786-0 > 100 µM | SNB-19 > 100 µM | UO-31 > 100 µM | TK-10 > 100 µM | SK-MEL-2 > 100 µM | SR > 100 µM | SW-620 > 100 µM | NCI/ADR-RES > 100 µM | NCI-H460 > 100 µM | A549 > 100 µM | NCI-H522 > 100 µM | SF-268 > 100 µM | SK-MEL-28 > 100 µM | UACC-257 > 100 µM | OVCAR-4 > 100 µM | U-251 > 100 µM | SK-MEL-5 > 100 µM | UACC-62 > 100 µM | MCF7 > 100 µM | Malme-3M > 100 µM | MOLT-4 > 100 µM | HCT-116 > 100 µM | NCI-H23 > 100 µM | SF-295 > 100 µM | SK-OV-3 > 100 µM | HOP-92 > 100 µM | CCRF-CEM > 100 µM | M14 > 100 µM | Hs-578T > 100 µM | LOX IMVI > 100 µM | CAKI-1 > 100 µM | K562 > 100 µM | SNB-75 > 100 µM | ACHN > 100 µM | RPMI-8226 > 100 µM | EKVX > 100 µM | HT-29 > 100 µM | OVCAR-8 > 100 µM

C=CCN1C(=O)CC1N(CC=C)S(=O)(=O)c1ccc(C)cc1 (centres undefined)
> 100 µM: HCT-15
inactive: DU-145 > 100 µM | MDA-N > 100 µM | IGROV-1 > 100 µM | COLO 205 > 100 µM | SN12C 61.7 µM | OVCAR-3 > 100 µM | KM12 > 100 µM | A498 > 100 µM | NCI-H226 > 100 µM | PC-3 > 100 µM | MDA-MB-435 > 100 µM | HL-60 > 100 µM | BT-549 > 100 µM | OVCAR-5 > 100 µM | 786-0 > 100 µM | SNB-19 > 100 µM | UO-31 > 100 µM | TK-10 > 100 µM | SR 82.8 µM | SW-620 > 100 µM | NCI/ADR-RES > 100 µM | NCI-H460 > 100 µM | A549 > 100 µM | NCI-H522 > 100 µM | SK-MEL-28 > 100 µM | UACC-257 > 100 µM | OVCAR-4 > 100 µM | U-251 > 100 µM | SK-MEL-5 > 100 µM | UACC-62 > 100 µM | MCF7 > 100 µM | Malme-3M > 100 µM | MOLT-4 > 100 µM | HCT-116 > 100 µM | NCI-H23 > 100 µM | SF-295 > 100 µM | SK-OV-3 > 100 µM | HOP-92 > 100 µM | CCRF-CEM > 100 µM | M14 > 100 µM | HCC 2998 > 100 µM | Hs-578T > 100 µM | LOX IMVI > 100 µM | CAKI-1 > 100 µM | K562 98.4 µM | RXF 393 > 100 µM | ACHN > 100 µM | RPMI-8226 > 100 µM | EKVX > 100 µM | HT-29 > 100 µM | OVCAR-8 > 100 µM

CCc1ccc(COC(=O)C2=C(C)NC(C)=C(C(=O)OCc3ccc(CC)cn3)C2C2=COCCO2)nc1
inactive: HOP-62 17.5 µM | SF-539 14.4 µM | DU-145 24.9 µM | IGROV-1 39.8 µM | COLO 205 12.5 µM | SN12C > 10 µM | OVCAR-3 19.7 µM | KM12 30.7 µM | NCI-H226 16.2 µM | PC-3 16 µM | MDA-MB-435 19.5 µM | HL-60 22.4 µM | BT-549 14.4 µM | OVCAR-5 28.1 µM | 786-0 23.2 µM | SNB-19 18.8 µM | UO-31 20.2 µM | TK-10 33.7 µM | SR 21.8 µM | SW-620 27.8 µM | NCI/ADR-RES 22 µM | NCI-H460 31.5 µM | A549 25.2 µM | NCI-H522 19.5 µM | SF-268 27.4 µM | SK-MEL-28 18.5 µM | UACC-257 20.5 µM | OVCAR-4 25.1 µM | U-251 17.5 µM | SK-MEL-5 13.3 µM | UACC-62 13.5 µM | MCF7 19.5 µM | MOLT-4 12.6 µM | HCT-116 16.3 µM | NCI-H23 20 µM | SF-295 24.9 µM | SK-OV-3 16.6 µM | T47D 11.3 µM | HOP-92 20.7 µM | CCRF-CEM 16.2 µM | M14 16.9 µM | HCC 2998 19.9 µM | Hs-578T 14 µM | MDA-MB-231 14.2 µM | LOX IMVI 15.2 µM | CAKI-1 23.9 µM | K562 18.2 µM | SNB-75 14.4 µM | RXF 393 15.4 µM | ACHN 25.2 µM | EKVX 12.7 µM | HT-29 21.4 µM | OVCAR-8 32.9 µM
22.7 µM: HCT-15
